From patent US20240336654A1, “ANTIMICROBIAL PEPTIDOMIMETICS” (SPEXIS AG, priority 2021, published 2024) come the findings set out here.

Holding throughout (type): cell-based
Data set [1] has as its system Escherichia coli MCR-1 Af 45. Conditions: MCR-1 Af 45. The method, boiled down:
(§1)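 The MIC is the lowest peptide concentration, in μg/mL, with no visible growth after 18-20 h incubation at 35 °C. Serial two-fold peptide dilutions in water with 0.002% P-80 final were added to bacteria in cation-adjusted MHII broth, about 5×10^5 CFU/mL, following modified CLSI microdilution.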

The test system of data set [2] is Klebsiella pneumoniae SSI3010. Conditions: SSI3010. The method, boiled down: as §1
In data set [3] the test system is Escherichia coli ATCC 25922. Conditions: ATCC 25922. In outline: as §1
The test system of data set [4] is human red blood cells (hRBC). As to conditions: red cells of human, 1 h, 200 μg/mL. In outline:
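Peptides at 200 μg/mL incubated 1 h at 37 °C with 20% (v/v) washed human RBC, shaking. Hemolysis from supernatant OD540, expressed as percent of 2.5% Triton X-100 lysis, with PBS as 0%.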

Where a SMILES comes first, the peptide text is derived from it. Bridges are numbered along the chain shown (N, C = ends). [ ]: non-standard residue; d: D form. The star is where a group is joined. Val(Nα-amidino) = CC(C)[C@H](NC(=N)N)C(=O)*; Hyp = O=C(O)[C@@H]1C[C@@H](O)CN1; Cit = NC(=O)NCCC[C@H](N)C(=O)O; Pen = CC(C)(S)[C@H](N)C(=O)O; dDab = NCC[C@@H](N)C(=O)O; hSer = N[C@@H](CCO)C(=O)O; Orn = NCCC[C@H](N)C(=O)O; Dab = NCC[C@H](N)C(=O)O Some results are limits rather than exact numbers.

Consider `CC[C@H](C)[C@H](NC(=O)[C@@H]1C[C@@H](O)CN1C(=O)[C@@H](NC(=N)N)C(C)C)C(=O)N[C@H]1CCNC(=O)CC[C@@H](C(=O)N[C@@H](Cc2ccc(O)cc2)C(=O)O)NC(=O)[C@H](CCN)NC(=O)[C@H](CCN)NC(=O)[C@H]([C@@H](C)O)NC(=O)[C@@H](CCN)NC(=O)[C@H]([C@@H](C)O)NC(=O)[C@H](CCN)NC(=O)[C@H](CCCNC(=N)N)NC(=O)[C@H](CC(N)=O)NC(=O)[C@H]([C@@H](C)O)NC(=O)[C@H](Cc2ccc(O)cc2)NC1=O` [Example 113, Gua-Val-Hyp-Ile-Dab-Tyr-Thr-Asn-Arg-Dab-Thr-^DDab-Thr-Dab-Dab-Glu-Tyr] ({Val(Nα-amidino)}-[Hyp]I[Dab]YTNR[Dab]T[dDab]T[Dab][Dab]EY-OH; lactam 3-14), for which the “Escherichia coli MCR-1 Af45 MIC” value in data set [1] stood at 0.125 µg/mL. For the same molecule, in data set [2], the “Klebsiella pneumoniae SSI3010 MIC” value worked out at 0.25 µg/mL. Also, the “Escherichia coli ATCC 25922 MIC” value in data set [3] came out at 0.125 µg/mL. The “Hemolysis at 0.2 g/L” value in data set [4] is given as below 1%.

In the case of `CC[C@H](C)[C@H](NC(=O)[C@@H]1C[C@@H](O)CN1C(=O)[C@@H](NC(=N)N)C(C)C)C(=O)N[C@H]1CCNC(=O)CC[C@@H](C(=O)N[C@@H](Cc2ccc(O)cc2)C(=O)O)NC(=O)[C@H](CCN)NC(=O)[C@H](CCN)NC(=O)[C@H](CCCNC(N)=O)NC(=O)[C@@H](CCN)NC(=O)[C@H]([C@@H](C)O)NC(=O)[C@H](CCN)NC(=O)[C@H](CCCNC(=N)N)NC(=O)[C@H](CC(N)=O)NC(=O)[C@H]([C@@H](C)O)NC(=O)[C@H](Cc2ccc(O)cc2)NC1=O` [Example 114, Gua-Val-Hyp-Ile-Dab-Tyr-Thr-Asn-Arg-Dab-Thr-^DDab-Cit-Dab-Dab-Glu-Tyr] ({Val(Nα-amidino)}-[Hyp]I[Dab]YTNR[Dab]T[dDab][Cit][Dab][Dab]EY-OH; lactam 3-14), the “Escherichia coli MCR-1 Af45 MIC” value in data set [1] turned out to be 0.125 µg/mL. Also, the “Klebsiella pneumoniae SSI3010 MIC” value in data set [2] stood at 0.5 µg/mL. Besides, in data set [3], the “Escherichia coli ATCC 25922 MIC” value turned out to be 0.125 µg/mL. Besides, the “Hemolysis at 0.2 g/L” value in data set [4] was below 1%.

For the molecule `CC[C@H](C)[C@H](NC(=O)[C@@H]1C[C@@H](O)CN1C(=O)[C@@H](NC(=N)N)C(C)C)C(=O)N[C@@H]1C(=O)N[C@@H](Cc2ccc(O)cc2)C(=O)N[C@@H](CCCNC(N)=O)C(=O)N[C@@H](CC(N)=O)C(=O)N[C@@H](CCCNC(=N)N)C(=O)N[C@@H](CCN)C(=O)N[C@@H]([C@@H](C)O)C(=O)N[C@H](CCN)C(=O)N[C@@H](CCCCN)C(=O)N[C@@H](CCN)C(=O)N[C@@H](CCN)C(=O)N[C@H](C(=O)N[C@@H](Cc2ccc(O)cc2)C(=O)O)CSSC1(C)C` [Example 115, Gua-Val-Hyp-Ile-Pen-Tyr-Cit-Asn-Arg-Dab-Thr-^DDab-Lys-Dab-Dab-Cys-Tyr] ({Val(Nα-amidino)}-[Hyp]I[Pen]Y[Cit]NR[Dab]T[dDab]K[Dab][Dab]CY-OH; disulfide 3-14), the “Escherichia coli MCR-1 Af45 MIC” value in data set [1] amounted to 0.0625 µg/mL. For the same molecule, in data set [2], the “Klebsiella pneumoniae SSI3010 MIC” value worked out at 0.125 µg/mL. The “Escherichia coli ATCC 25922 MIC” value in data set [3] worked out at 0.125 µg/mL. Also, in data set [4], the “Hemolysis at 0.2 g/L” value is listed as below 1%.

Turning to `CC[C@H](C)[C@H](NC(=O)[C@@H]1C[C@@H](O)CN1C(=O)[C@@H](NC(=N)N)C(C)C)C(=O)N[C@H]1CCNC(=O)CC[C@@H](C(=O)N[C@@H](Cc2ccc(O)cc2)C(=O)O)NC(=O)[C@H](CCN)NC(=O)[C@H](CCN)NC(=O)[C@H](CCCCN)NC(=O)[C@@H](CCN)NC(=O)[C@H]([C@@H](C)O)NC(=O)[C@H](CCN)NC(=O)[C@H](CCCNC(=N)N)NC(=O)[C@H](CC(N)=O)NC(=O)[C@H](CCCNC(N)=O)NC(=O)[C@H](Cc2ccc(O)cc2)NC1=O` [Example 116, Gua-Val-Hyp-Ile-Dab-Tyr-Cit-Asn-Arg-Dab-Thr-^DDab-Lys-Dab-Dab-Glu-Tyr] ({Val(Nα-amidino)}-[Hyp]I[Dab]Y[Cit]NR[Dab]T[dDab]K[Dab][Dab]EY-OH; lactam 3-14), in data set [1], the “Escherichia coli MCR-1 Af45 MIC” value amounted to 0.0625 µg/mL. In addition, the “Klebsiella pneumoniae SSI3010 MIC” value in data set [2] was 0.125 µg/mL. Besides, the “Escherichia coli ATCC 25922 MIC” value in data set [3] amounted to 0.0625 µg/mL. Further, in data set [4], the “Hemolysis at 0.2 g/L” value is recorded as below 1%.

In the case of `CC[C@H](C)[C@H](NC(=O)[C@@H]1C[C@@H](O)CN1C(=O)[C@@H](NC(=N)N)C(C)C)C(=O)N[C@@H]1C(=O)N[C@@H](Cc2ccc(O)cc2)C(=O)N[C@@H](CCO)C(=O)N[C@@H](CC(N)=O)C(=O)N[C@@H](CCCNC(=N)N)C(=O)N[C@@H](CCN)C(=O)N[C@@H]([C@@H](C)O)C(=O)N[C@H](CCN)C(=O)N[C@@H](CCCCN)C(=O)N[C@@H](CCN)C(=O)N[C@@H](CCN)C(=O)N[C@H](C(=O)N[C@@H](Cc2ccc(O)cc2)C(=O)O)CSSC1(C)C` [Example 117, Gua-Val-Hyp-Ile-Pen-Tyr-Hse-Asn-Arg-Dab-Thr-^DDab-Lys-Dab-Dab-Cys-Tyr] ({Val(Nα-amidino)}-[Hyp]I[Pen]Y[hSer]NR[Dab]T[dDab]K[Dab][Dab]CY-OH; disulfide 3-14), the “Escherichia coli MCR-1 Af45 MIC” value in data set [1] was 0.0625 µg/mL. Besides, in data set [2], the “Klebsiella pneumoniae SSI3010 MIC” value was determined as 0.125 µg/mL. Further, the “Escherichia coli ATCC 25922 MIC” value in data set [3] is 0.125 µg/mL. For the same molecule, in data set [4], the “Hemolysis at 0.2 g/L” value is given as below 1%.

Take `CC[C@H](C)[C@H](NC(=O)[C@@H]1C[C@@H](O)CN1C(=O)[C@@H](NC(=N)N)C(C)C)C(=O)N[C@H]1CCNC(=O)CC[C@@H](C(=O)N[C@@H](Cc2ccc(O)cc2)C(=O)O)NC(=O)[C@H](CCN)NC(=O)[C@H](CCN)NC(=O)[C@H](CCCCN)NC(=O)[C@@H](CCN)NC(=O)[C@H]([C@@H](C)O)NC(=O)[C@H](CCN)NC(=O)[C@H](CCCNC(=N)N)NC(=O)[C@H](CC(N)=O)NC(=O)[C@H](CCO)NC(=O)[C@H](Cc2ccc(O)cc2)NC1=O` [Example 118, Gua-Val-Hyp-Ile-Dab-Tyr-Hse-Asn-Arg-Dab-Thr-^DDab-Lys-Dab-Dab-Glu-Tyr] ({Val(Nα-amidino)}-[Hyp]I[Dab]Y[hSer]NR[Dab]T[dDab]K[Dab][Dab]EY-OH; lactam 3-14): in data set [1], the “Escherichia coli MCR-1 Af45 MIC” value was found to be 0.0625 µg/mL. Besides, the “Klebsiella pneumoniae SSI3010 MIC” value in data set [2] worked out at 0.125 µg/mL. Also, the “Escherichia coli ATCC 25922 MIC” value in data set [3] stood at 0.0625 µg/mL. In data set [4], the “Hemolysis at 0.2 g/L” value was below 1%.

For the molecule `CC[C@H](C)[C@H](NC(=O)[C@@H]1C[C@@H](O)CN1C(=O)[C@@H](NC(=N)N)C(C)C)C(=O)N[C@H]1CCNC(=O)CC[C@@H](C(=O)N[C@@H](Cc2ccc(O)cc2)C(=O)O)NC(=O)[C@H](CCN)NC(=O)[C@H](CCN)NC(=O)[C@H](CCCN)NC(=O)[C@@H](CCN)NC(=O)[C@H]([C@@H](C)O)NC(=O)[C@H](CCN)NC(=O)[C@H](CCCNC(=N)N)NC(=O)[C@H](CC(N)=O)NC(=O)[C@H]([C@@H](C)O)NC(=O)[C@H](Cc2ccc(O)cc2)NC1=O` [Example 119, Gua-Val-Hyp-Ile-Dab-Tyr-Thr-Asn-Arg-Dab-Thr-^DDab-Orn-Dab-Dab-Glu-Tyr] ({Val(Nα-amidino)}-[Hyp]I[Dab]YTNR[Dab]T[dDab][Orn][Dab][Dab]EY-OH; lactam 3-14), the “Escherichia coli MCR-1 Af45 MIC” value in data set [1] stood at 0.0625 µg/mL. The “Klebsiella pneumoniae SSI3010 MIC” value in data set [2] is 0.125 µg/mL. For the same molecule, the “Escherichia coli ATCC 25922 MIC” value in data set [3] stood at 0.0625 µg/mL. Also, in data set [4], the “Hemolysis at 0.2 g/L” value is listed as below 1%.

As for `CC[C@H](C)[C@H](NC(=O)[C@@H]1C[C@@H](O)CN1C(=O)[C@@H](NC(=N)N)C(C)C)C(=O)N[C@@H]1C(=O)N[C@@H](Cc2ccc(O)cc2)C(=O)N[C@@H](CCN)C(=O)N[C@@H](CC(N)=O)C(=O)N[C@@H](CCCNC(=N)N)C(=O)N[C@@H](CCN)C(=O)N[C@@H]([C@@H](C)O)C(=O)N[C@H](CCN)C(=O)N[C@@H](CCN)C(=O)N[C@@H]([C@@H](C)O)C(=O)N[C@@H](CCN)C(=O)N[C@H](C(=O)N[C@@H](Cc2ccc(O)cc2)C(=O)O)CSSC1(C)C` [Example 120, Gua-Val-Hyp-Ile-Pen-Tyr-Dab-Asn-Arg-Dab-Thr-^DDab-Dab-Thr-Dab-Cys-Tyr] ({Val(Nα-amidino)}-[Hyp]I[Pen]Y[Dab]NR[Dab]T[dDab][Dab]T[Dab]CY-OH; disulfide 3-14), the “Escherichia coli MCR-1 Af45 MIC” value in data set [1] was determined as 0.0625 µg/mL. The “Klebsiella pneumoniae SSI3010 MIC” value in data set [2] was 0.125 µg/mL. In data set [3], the “Escherichia coli ATCC 25922 MIC” value turned out to be 0.125 µg/mL. In data set [4], the “Hemolysis at 0.2 g/L” value is reported as below 1%.

Take `CC[C@H](C)[C@H](NC(=O)[C@@H]1C[C@@H](O)CN1C(=O)[C@@H](NC(=N)N)C(C)C)C(=O)N[C@@H]1C(=O)N[C@@H](Cc2ccc(O)cc2)C(=O)N[C@@H](CCN)C(=O)N[C@@H](CC(N)=O)C(=O)N[C@@H](CCCNC(=N)N)C(=O)N[C@@H](CCN)C(=O)N[C@@H]([C@@H](C)O)C(=O)N[C@H](CCN)C(=O)N[C@@H](CCCN)C(=O)N[C@@H]([C@@H](C)O)C(=O)N[C@@H](CCN)C(=O)N[C@H](C(=O)N[C@@H](Cc2ccc(O)cc2)C(=O)O)CSSC1(C)C` [Example 121, Gua-Val-Hyp-Ile-Pen-Tyr-Dab-Asn-Arg-Dab-Thr-^DDab-Orn-Thr-Dab-Cys-Tyr] ({Val(Nα-amidino)}-[Hyp]I[Pen]Y[Dab]NR[Dab]T[dDab][Orn]T[Dab]CY-OH; disulfide 3-14): the “Escherichia coli MCR-1 Af45 MIC” value in data set [1] turned out to be 0.0625 µg/mL. Besides, the “Klebsiella pneumoniae SSI3010 MIC” value in data set [2] was determined as 0.125 µg/mL. For the same molecule, the “Escherichia coli ATCC 25922 MIC” value in data set [3] came out at 0.0625 µg/mL. In data set [4], the “Hemolysis at 0.2 g/L” value is on record as below 1%.
